Values after ≈ are worked out from the molar mass of the structure shown.
Legend:
[1] = Inhibition of UAE (unknown origin)-catalyzed UAE-Ub intermediate formation; parameters: species or system Homo sapiens
[2] = Inhibition of N-terminal GST-tagged human UAE-catalyzed UAE-Ub thioester intermediate formation expressed in HI5 insect cells after 30 mins by immunoblotting analysis
[3] = Inhibition of N-terminal GST-tagged human UAE-catalyzed [32P]-AMP:[a-32P]-ATP exchange expressed in HI5 insect cells by TLC analysis
[4] = Inhibition of mouse recombinant His6-tagged UAE-catalyzed UAE-Ub thioester intermediate formation expressed in insect cells by SDS-PAGE analysis
[5] = Cytotoxicity against human U226 cells assessed as induction of cell death after 72 hrs by Alamar blue assay; format: functional; conditions: U226, 72 h, read-out: LD50 (the source's name)
[6] = Cytotoxicity against human KMS11 cells assessed as induction of cell death after 72 hrs by Alamar blue assay; format: functional; conditions: KMS-11, 72 h, read-out: LD50 (the source's name)
[7] = Cytotoxicity against human Leukemia cells assessed as induction of cell death after 72 hrs by Alamar blue assay; format: functional; conditions: read-out: LD50 (the source's name)
LP-1 = test: Cytotoxicity against human LP-1 cells assessed as induction of cell death after 72 hrs by Alamar blue assay; format: functional; conditions: LP-1, 72 h, read-out: LD50 (the source's name)
[8] = Inhibition of GST-tagged human recombinant UAE-catalyzed UAE-Ub thioester intermediate formation after 30 mins by fluorescence assay
T47D = test: Cytotoxicity against human T47D cells assessed as induction of cell death after 72 hrs by Alamar blue assay; format: functional; conditions: read-out: LD50 (the source's name)
HeLa = test: Cytotoxicity against human HeLa cells assessed as induction of cell death after 72 hrs by Alamar blue assay; format: functional; conditions: read-out: LD50 (the source's name)
[9] = Cytotoxicity against human MDA468 cells assessed as induction of cell death after 72 hrs by Alamar blue assay; format: functional; conditions: MDA-MB-468, 72 h, read-out: LD50 (the source's name)
FaDu = test: Cytotoxicity against human FADU cells assessed as induction of cell death after 72 hrs by Alamar blue assay; format: functional; conditions: read-out: LD50 (the source's name)
DU-145 = test: Cytotoxicity against human DU145 cells assessed as induction of cell death after 72 hrs by Alamar blue assay; format: functional; conditions: DU-145, 72 h, read-out: LD50 (the source's name)
HT-29 = test: Cytotoxicity against human HT-29 cells assessed as induction of cell death after 72 hrs by Alamar blue assay; format: functional; conditions: HT-29, 72 h, read-out: LD50 (the source's name)
[10] = Cytotoxicity against human OVACR3 cells assessed as induction of cell death after 72 hrs by Alamar blue assay; format: functional; conditions: OVACR3, 72 h, read-out: LD50 (the source's name)
PPC-1 = test: Cytotoxicity against human PPC1 cells assessed as induction of cell death after 72 hrs by Alamar blue assay; format: functional; conditions: PPC-1, 72 h, read-out: LD50 (the source's name)

## CC(C)(O)/C=C/[C@@]12[C@H]3[C@@H](O)[C@@H]4O[C@@H]4[C@]1(O)OC(C)(C)[C@@H]2C=C1C(=O)[C@H]2O[C@H]2[C@H](O)[C@H]13 [PANEPOPHENANTHRIN]
[1]
  IC50: 17 µg/mL (≈ 40.4 µM)

## CCOC(=O)c1ccc(N2NC(=O)/C(=C/c3ccc([N+](=O)[O-])o3)C2=O)cc1
[2]
  IC50: < 10 µM
[3]
  IC50: 6.4 µM
[4]
  IC50: < 10 µM

## O=C1NN(c2ccc(F)c(Cl)c2)C(=O)/C1=C\c1ccc([N+](=O)[O-])o1
[5]
  CC50: ≤ 3 µM
[6]
  CC50: ≤ 3 µM
[7]
  CC50: < 10 µM
LP-1
  CC50: ≤ 3 µM
[8]
  IC50: 20 µM
T47D
  CC50: 15 µM
HeLa
  CC50: 15 µM
[9]
  CC50: 15 µM
FaDu
  CC50: 15 µM
DU-145
  CC50: 15 µM
HT-29
  CC50: 15 µM
[10]
  CC50: 15 µM
PPC-1
  CC50: 15 µM

Source: ChEMBL document CHEMBL2321716, “Exploring a new frontier in cancer treatment: targeting the ubiquitin and ubiquitin-like activating enzymes” (J Med Chem, 2013)
